Source: the CheMixHub viscosity set

Test: xn = mol fraction of the nth substance listed

CC(C)CCO + OCc1ccccc1
viscosity [mPa·s], 101 kPa
Settings	x1 = 0.0955	x1 = 0.1908	x1 = 0.2853	x1 = 0.3812	x1 = 0.4814	x1 = 0.5847	x1 = 0.6842	x1 = 0.7879	x1 = 0.8921
293.15 K	6.28	6.27	6.26	6.18	6.07	5.86	5.58	5.23	4.86
298.15 K	5.53	5.51	5.49	5.42	5.31	5.11	4.85	4.53	4.19
303.15 K	4.64	4.63	4.62	4.58	4.49	4.37	4.19	3.94	3.64
308.15 K	3.96	3.92	3.89	3.86	3.81	3.7	3.53	3.28	3
313.15 K	3.48	3.44	3.39	3.36	3.31	3.22	3.1	2.95	2.71
318.15 K	3.05	3	2.95	2.89	2.83	2.74	2.63	2.49	2.3

CC(CC(C)(C)C)CP(=O)(O)CC(C)CC(C)(C)C (centres undefined) + c1ccccc1
298.15 K, 101 kPa
Settings	viscosity [mPa·s]
x1 = 0.0058	0.631
x1 = 0.0104	0.661
x1 = 0.0122	0.678
x2 = 0.1178	93.82
x2 = 0.2304	71.32
x2 = 0.3732	46.06
x2 = 0.5517	20.77
x2 = 0.6956	8.438
x2 = 0.784	4.43
x2 = 0.7966	4.061
x2 = 0.8411	2.952
x2 = 0.8809	2.165
x2 = 0.8838	2.106
x2 = 0.9333	1.332
x2 = 0.9375	1.29
x2 = 0.9656	0.94
x2 = 0.9738	0.83

CCOCCO + c1ccccc1
viscosity [mPa·s], 101 kPa
Settings	298.15 K	308.15 K
x1 = 0.0585	0.632	0.548
x1 = 0.1533	0.686	0.587
x1 = 0.2518	0.752	0.635
x1 = 0.3637	0.841	0.7
x1 = 0.4521	0.923	0.76
x1 = 0.5048	0.979	0.8
x1 = 0.5525	1.034	0.839
x1 = 0.6521	1.164	0.931
x1 = 0.7508	1.317	1.039
x1 = 0.8521	1.505	1.17
x1 = 0.9547	1.734	1.328

CNC(C)=O + c1ccccc1
308.15 K, 101.33 kPa
Settings	viscosity [mPa·s]
x1 = 0.0294	0.4955
x1 = 0.226	0.8005
x1 = 0.3331	1.021
x1 = 0.437	1.255
x1 = 0.5349	1.51
x1 = 0.6329	1.78
x1 = 0.7301	2.099
x1 = 0.823	2.452
x1 = 0.9747	3.132

N#C[C-](C#N)C#N.OCCC[n+]1ccccc1 + c1ccsc1
101 kPa
Settings	viscosity [mPa·s]
298.15 K, x1 = 0.5955	36.55
313.15 K, x1 = 0.9377	39.55
